Data as given in US20260285850A1, “SUBSTITUTED OXAZOLIDINONES AND IMIDAZOLINONES AS HERBICIDES” (FMC CORPORATION, priority 2023, published 2026).

Tests used:
Type in all cases: in vivo
[1] = system: wheat (Triticum aestivum); test: Test A preemergence soil spray, visual injury rating 0-100; details: 10 days
Method in brief: (§1)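 Seeds sown in loam-sand blend got a preemergence directed soil spray, or emerged plants (2-10 cm, one- to two-leaf) got a postemergence spray, of compound in non-phytotoxic solvent with surfactant. After 10 days in greenhouse, injury rated visually versus untreated controls on a 0 (no effect) to 100 (complete control) scale.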

corn (Zea mays) [2] = test: as above; details: 10 days
Method in brief: as §1

soybean (Glycine max) [3] = test: as above; details: 10 days
Method in brief: as §1

kochia (Bassia scoparia) [4] = test: as above; details: 10 days
Method in brief: as §1

[5] = system: green foxtail (Setaria viridis); test: as above; details: 10 days
Method in brief: as §1

[6] = system: palmer (palmer amaranth, palmer pigweed, Amaranthus palmeri); test: as above; details: 10 days
Method in brief: as §1

[7] = system: ragweed (common ragweed, Ambrosia artemisiifolia); test: as above; details: 10 days
Method in brief: as §1

[8] = system: ryegrass, Italian (italian ryegrass, Lolium multiflorum); test: as above; details: 10 days
Method in brief: as §1

[9] = system: barnyardgrass (Echinochloa crus-galli); test: as above; details: 10 days
Method in brief: as §1

[10] = system: blackgrass (Alopecurus myosuroides); test: as above; details: 10 days
Method in brief: as §1

[11] = system: oat, wild (wild oat, Avena fatua); test: as above; details: 10 days
Method in brief: as §1

[12] = system: wheat (Triticum aestivum); test: Test A postemergence application, visual injury rating 0-100
Method in brief: as §1

corn (Zea mays) [13] = test: as above
Method in brief: as §1

soybean (Glycine max) [14] = test: as above
Method in brief: as §1

kochia (Bassia scoparia) [15] = test: as above
Method in brief: as §1

[16] = system: horseweed (Erigeron canadensis); test: as above
Method in brief: as §1

[17] = system: green foxtail (Setaria viridis); test: as above
Method in brief: as §1

[18] = system: palmer (palmer amaranth, palmer pigweed, Amaranthus palmeri); test: as above
Method in brief: as §1

[19] = system: ragweed (common ragweed, Ambrosia artemisiifolia); test: as above
Method in brief: as §1

[20] = system: ryegrass, Italian (italian ryegrass, Lolium multiflorum); test: as above
Method in brief: as §1

[21] = system: barnyardgrass (Echinochloa crus-galli); test: as above
Method in brief: as §1

[22] = system: blackgrass (Alopecurus myosuroides); test: as above
Method in brief: as §1

[23] = system: oat, wild (wild oat, Avena fatua); test: as above
Method in brief: as §1

[24] = system: ducksalad (Heteranthera limosa); test: Test B flooded paddy test, visual plant response rating 0-100; details: 250 g ai/ha, Flood, applied to paddy water, evaluated after 13 days
Method in brief: (§2)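 Plants were grown to the 2-leaf stage, then pots were flooded to 3 cm above the soil and compound was applied directly to the paddy water, with that depth kept throughout.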

rice (Oryza sativa) = test: as above; details: 250 g ai/ha, Flood, applied to paddy water, evaluated after 13 days
Method in brief: as §2

[25] = system: sedge, umbrella (small-flower umbrella sedge, Cyperus difformis); test: as above; details: 250 g ai/ha, Flood, applied to paddy water, evaluated after 13 days
Method in brief: as §2

[26] = system: barnyardgrass (Echinochloa crusgalli); test: as above; details: 250 g ai/ha, Flood, applied to paddy water, evaluated after 13 days
Method in brief: as §2

[27] = 62 g ai/ha, 0 = no effect, 100 = complete control
[28] = 62 g ai/ha, postemergence, 10 days, 0 = no effect, 100 = complete control
[29] = Postemergence, 16 g ai/ha, greenhouse 10 days, 0 no effect, 100 complete control

COC(=O)COC(=O)C1=CCC(NC(=O)C2(C)CN(c3cc(Cl)cc(Cl)c3)C(=O)O2)C1 (centres unmarked) [Compound 109]
Wheat plant response rating ([1]; 16 g ai/ha, 0 to 100 scale): 0
Wheat plant response rating (0-100) [1, 27]: 0
Corn plant response rating (corn (Zea mays) [2]; 16 g ai/ha, 0 to 100 scale): 0
Corn plant response rating (0-100) (corn (Zea mays) [2]; [27]): 0
Soybean plant response rating (soybean (Glycine max) [3]; 16 g ai/ha, 0 to 100 scale): 0
Soybean plant response rating (0-100) (soybean (Glycine max) [3]; [27]): 0
Kochia plant response rating (kochia (Bassia scoparia) [4]; 16 g ai/ha, 0 to 100 scale): 0
Kochia plant response rating (0-100) (kochia (Bassia scoparia) [4]; [27]): 0
Foxtail, Green plant response rating ([5]; 16 g ai/ha, 0 to 100 scale): 0
Foxtail, Green plant response rating (0-100) [5, 27]: 0
Pigweed, Palmer plant response rating ([6]; 16 g ai/ha, 0 to 100 scale): 0
Pigweed, Palmer plant response rating (0-100) [6, 27]: 0
Ragweed plant response rating ([7]; 16 g ai/ha, 0 to 100 scale): 0
Ragweed plant response rating (0-100) [7, 27]: 0
Ryegrass, Italian plant response rating ([8]; 16 g ai/ha, 0 to 100 scale): 0
Ryegrass, Italian plant response rating (0-100) [8, 27]: 0
Barnyardgrass plant response rating ([9]; 16 g ai/ha, 0 to 100 scale): 0
Barnyardgrass plant response rating (0-100) [9, 27]: 0
Blackgrass plant response rating ([10]; 16 g ai/ha, 0 to 100 scale): 0
Blackgrass plant response rating (0-100) [10, 27]: 0
Oat, Wild plant response rating ([11]; 16 g ai/ha, 0 to 100 scale): 0
Oat, Wild plant response rating (0-100) [11, 27]: 0
Wheat plant response rating (0-100) [12, 28]: 0
Wheat plant response rating (0 to 100 scale) [12, 29]: 0
Corn plant response rating (0-100) (corn (Zea mays) [13]; [28]): 0
Corn plant response rating (0 to 100 scale) (corn (Zea mays) [13]; [29]): 0
Soybean plant response rating (0-100) (soybean (Glycine max) [14]; [28]): 0
Soybean plant response rating (0 to 100 scale) (soybean (Glycine max) [14]; [29]): 0
Kochia plant response rating (0-100) (kochia (Bassia scoparia) [15]; [28]): 0
Kochia plant response rating (0 to 100 scale) (kochia (Bassia scoparia) [15]; [29]): 0
Horseweed plant response rating (0-100) [16, 28]: 20
Horseweed plant response rating (0 to 100 scale) [16, 29]: 0
Foxtail, Green plant response rating (0-100) [17, 28]: 0
Foxtail, Green plant response rating (0 to 100 scale) [17, 29]: 0
Pigweed, Palmer plant response rating (0-100) [18, 28]: 40
Pigweed, Palmer plant response rating (0 to 100 scale) [18, 29]: 0
Ragweed plant response rating (0-100) [19, 28]: 0
Ragweed plant response rating (0 to 100 scale) [19, 29]: 0
Ryegrass, Italian plant response rating (0-100) [20, 28]: 0
Ryegrass, Italian plant response rating (0 to 100 scale) [20, 29]: 0
Barnyardgrass plant response rating (0-100) [21, 28]: 20
Barnyardgrass plant response rating (0 to 100 scale) [21, 29]: 0
Blackgrass plant response rating (0-100) [22, 28]: 30
Blackgrass plant response rating (0 to 100 scale) [22, 29]: 0
Oat, Wild plant response rating (0-100) [23, 28]: 0
Oat, Wild plant response rating (0 to 100 scale) [23, 29]: 0
Plant response rating, Ducksalad (0 to 100 scale, 0 is no effect and 100 is complete control) [24]: 0
Plant response rating, Rice (0 to 100 scale, 0 is no effect and 100 is complete control) (rice (Oryza sativa)): 0
Plant response rating, Sedge, Umbrella (0 to 100 scale, 0 is no effect and 100 is complete control) [25]: 0
Plant response rating, Barnyardgrass (0 to 100 scale, 0 is no effect and 100 is complete control) [26]: 0
